Reference: patent US20260138976A1 (Hoffmann-La Roche Inc., priority 2022, published 2026)

Assays:
[1] = target: T1, DGKζ (hDGKzeta(1-928)-N-His) (Homo sapiens, UniProt Q13574); experiment: In vitro DGK inhibition assay, DGKzeta ADP Glo (in house); assay type: biochemical; conditions: 2 nM DGKζ, 50 μM ATP, 125 uM DLG in liposomes, 1 hour reaction
T1 construct: hDGKzeta(1-928)-N-His; His (N); made in house; host or cells: Sf21 insect cells (baculovirus)
Outline: (§1)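 Full-length His-tagged human DGKα (4 nM) or DGKζ (2 nM), expressed in Sf21 cells, phosphorylated 125 µM DLG in PS/PC liposomes with ATP at 25 µM (α) or 50 µM (ζ) for 1 h. ADP was measured by ADP-Glo luminescence. Compounds were tested as 11-point 1:3 series in 2% DMSO.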

[2] = target: T2, DGKα (hDGKalpha(1-735)-N-His) (Homo sapiens, UniProt P23743); experiment: In vitro DGK inhibition assay, DGKalpha ADP Glo (in house); assay type: biochemical; conditions: 4 nM DGKα, 25 μM ATP, 125 uM DLG in liposomes, 1 hour reaction
T2 construct: hDGKalpha(1-735)-N-His; His (N); made in house; host or cells: Sf21 insect cells (baculovirus)
T2 sequence (P23743 whole entry): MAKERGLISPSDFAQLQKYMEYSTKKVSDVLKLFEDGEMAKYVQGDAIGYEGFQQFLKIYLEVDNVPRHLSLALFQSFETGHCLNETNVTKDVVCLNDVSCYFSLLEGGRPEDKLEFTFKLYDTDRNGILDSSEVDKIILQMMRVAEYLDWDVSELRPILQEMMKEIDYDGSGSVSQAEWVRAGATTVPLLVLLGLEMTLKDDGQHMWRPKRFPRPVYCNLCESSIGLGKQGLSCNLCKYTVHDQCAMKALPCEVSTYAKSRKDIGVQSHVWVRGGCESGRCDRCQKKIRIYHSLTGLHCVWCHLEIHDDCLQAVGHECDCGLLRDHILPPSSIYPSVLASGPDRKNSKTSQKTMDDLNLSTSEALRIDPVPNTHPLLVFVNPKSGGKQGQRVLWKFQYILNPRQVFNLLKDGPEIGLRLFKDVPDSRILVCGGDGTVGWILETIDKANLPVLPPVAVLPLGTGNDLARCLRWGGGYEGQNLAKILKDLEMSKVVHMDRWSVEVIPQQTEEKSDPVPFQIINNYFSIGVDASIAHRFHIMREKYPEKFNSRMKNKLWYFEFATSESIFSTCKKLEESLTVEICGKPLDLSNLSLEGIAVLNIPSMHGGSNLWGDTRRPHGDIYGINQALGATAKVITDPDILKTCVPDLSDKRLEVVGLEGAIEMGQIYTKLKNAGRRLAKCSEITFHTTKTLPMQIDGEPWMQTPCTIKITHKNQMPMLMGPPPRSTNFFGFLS
Outline: as §1

primary human T-cells = experiment: Proliferation assay (5 days, CellTiter-Glo, CD3-stimulated T-cells); assay type: cell-based; conditions: for Emax proliferation (% activation): CD3 condition, normalised to DMSO (neutral) and 20 μM reference compound A1 = 100%; for EC50: Homo sapiens, T-cell, 120 h, CD3-stimulated primary human T-cells, 5 days, CellTiter-Glo, fitted sigmoidal curve, read-out: Tcell Proliferation CD3 EC50
Outline: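 Expanded primary human T-cells, 100 k cells/well, were stimulated with plate-coated CD3 antibody (donor-titrated) and given compound in a 5 or 6 pt dose response from 20 μM or 10 μM final top, 0.2% DMSO final. ATP was read by CellTiter-Glo after 5 days. EC50 and Emax were reported as % of 20 μM reference compound A1.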

T1 sequence (Q13574 whole entry): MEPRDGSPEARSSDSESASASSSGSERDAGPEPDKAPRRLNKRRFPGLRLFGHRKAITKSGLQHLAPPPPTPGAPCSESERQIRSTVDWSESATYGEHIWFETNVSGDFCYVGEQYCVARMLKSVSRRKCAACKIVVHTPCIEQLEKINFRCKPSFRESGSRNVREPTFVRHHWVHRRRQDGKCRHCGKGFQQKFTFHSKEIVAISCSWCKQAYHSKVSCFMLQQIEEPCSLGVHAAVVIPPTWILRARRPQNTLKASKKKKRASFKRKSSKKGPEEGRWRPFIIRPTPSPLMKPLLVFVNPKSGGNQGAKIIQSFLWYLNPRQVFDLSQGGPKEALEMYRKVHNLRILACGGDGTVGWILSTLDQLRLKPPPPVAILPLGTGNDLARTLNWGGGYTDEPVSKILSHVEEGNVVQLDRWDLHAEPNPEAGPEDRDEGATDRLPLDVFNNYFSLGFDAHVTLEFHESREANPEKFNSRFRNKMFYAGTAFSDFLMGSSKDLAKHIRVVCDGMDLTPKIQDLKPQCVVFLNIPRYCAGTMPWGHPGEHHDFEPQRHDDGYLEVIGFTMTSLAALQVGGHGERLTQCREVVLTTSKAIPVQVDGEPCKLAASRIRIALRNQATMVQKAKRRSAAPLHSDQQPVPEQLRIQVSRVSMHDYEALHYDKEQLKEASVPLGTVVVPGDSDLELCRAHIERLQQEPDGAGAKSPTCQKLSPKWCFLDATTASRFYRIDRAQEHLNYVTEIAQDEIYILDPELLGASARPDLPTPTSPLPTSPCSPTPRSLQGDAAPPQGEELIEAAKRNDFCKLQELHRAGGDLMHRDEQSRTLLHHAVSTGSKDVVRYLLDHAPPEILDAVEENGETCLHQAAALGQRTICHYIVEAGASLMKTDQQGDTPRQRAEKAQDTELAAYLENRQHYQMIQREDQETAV

| Compound | IC50 [1] | IC50 [2] | Emax proliferation (% activation) (primary human T-cells) | EC50 (primary human T-cells) |
| --- | --- | --- | --- | --- |
| CC(C)(C#N)c1nnc(-c2ccc3c(c2)N(Cc2ccc(-c4ccc(C(F)(F)F)cc4)nc2)C(=O)[C@@H](N)CS3(=O)=O)o1 [Example 106] | 2370 nM | 14400 nM | 79 % activation | 3790 nM |
| CC(C)(C#N)c1nnc(-c2ccc3c(c2)N(Cc2ccc(-c4noc(C(F)(F)F)n4)cc2)C(=O)[C@@H](N)CS3(=O)=O)o1 [Example 38, 2-[5-[(3R)-3-amino-1,1,4-trioxo-5-[[4-[5-(trifluoromethyl)-1,2,4-oxadiazol-3-yl]phenyl]methyl]-2,3-dihydro-1λ^6,5-benzothiazepin-7-yl]-1,3,4-oxadiazol-2-yl]-2-methyl-propanenitrile] | 1140 nM | 9770 nM | 97 % activation | 640 nM |
| COC(=O)N1CC(c2nnc(-c3ccc4c(c3)N(Cc3ccc(-c5ccc(C(F)(F)F)cc5)nc3)C(=O)[C@@H](N)CS4(=O)=O)o2)CC(F)(F)C1 (stereo partly drawn) [Example 57, methyl 3,3-difluoro-5-[5-[(3R)-3-amino-1,1,4-trioxo-5-[[6-[4-(trifluoromethyl)phenyl]-3-pyridyl]methyl]-2,3-dihydro-1λ^6,5-benzothiazepin-7-yl]-1,3,4-oxadiazol-2-yl]piperidine-1-carboxylate] | 2340 nM | 3340 nM | 181 % activation | 567 nM |
| COC(=O)N1CC(c2nnc(-c3ccc4c(c3)N(Cc3ccc(-c5noc(C(C)(C)C)n5)cc3)C(=O)[C@@H](N)CS4(=O)=O)o2)CC(F)(F)C1 (stereo partly drawn) [Example 56, methyl 3,3-difluoro-5-[5-[(3R)-3-amino-5-[[4-(5-tert-butyl-1,2,4-oxadiazol-3-yl)phenyl]methyl]-1,1,4-trioxo-2,3-dihydro-1λ^6,5-benzothiazepin-7-yl]-1,3,4-oxadiazol-2-yl]piperidine-1-carboxylate] | 228 nM | 1990 nM | 425 % activation | 2210 nM |
| N[C@H]1CS(=O)(=O)c2ccc(-c3nnc(N4CCC(F)(F)CC4)o3)cc2N(Cc2ccc(-c3noc(C(F)(F)F)n3)cc2)C1=O [Example 68, (3R)-3-amino-7-[5-(4,4-difluoro-1-piperidyl)-1,3,4-oxadiazol-2-yl]-1,1-dioxo-5-[[4-[5-(trifluoromethyl)-1,2,4-oxadiazol-3-yl]phenyl]methyl]-2,3-dihydro-1λ^6,5-benzothiazepin-4-one] | 625 nM | 2640 nM | 104 % activation | 26.1 nM |
| CC(C)(C)c1nnc(-c2ccc3c(c2)N(Cc2ccc(-c4nnc(C(F)(F)F)o4)cc2)C(=O)[C@@H](N)CS3(=O)=O)o1 [Example 24, (3R)-3-amino-7-(5-tert-butyl-1,3,4-oxadiazol-2-yl)-1,1-dioxo-5-[[4-[5-(trifluoromethyl)-1,3,4-oxadiazol-2-yl]phenyl]methyl]-2,3-dihydro-1λ^6,5-benzothiazepin-4-one] | 1440 nM | 9860 nM | 142 % activation | 775 nM |
| CC(C)(C#N)c1nnc(-c2ccc3c(c2)N(Cc2ccc(-c4ncc(C(F)(F)F)o4)cc2)C(=O)[C@@H](N)CS3(=O)=O)o1 [Example 105, 2-[5-[(3R)-3-amino-1,1,4-trioxo-5-[[4-[5-(trifluoromethyl)oxazol-2-yl]phenyl]methyl]-2,3-dihydro-1λ^6,5-benzothiazepin-7-yl]-1,3,4-oxadiazol-2-yl]-2-methyl-propanenitrile] | 787 nM | 694 nM | 138 % activation | 391 nM |
| N#CC1(c2nnc(-c3ccc4c(c3)N(Cc3ccc(-c5ccc(OC(F)(F)F)cn5)cc3)C(=O)[C@@H](N)CS4(=O)=O)o2)CCC1 [Example 172, 1-[5-[(3R)-3-amino-1,1,4-trioxo-5-[[4-[5-(trifluoromethoxy)-2-pyridyl]phenyl]methyl]-2,3-dihydro-1λ^6,5-benzothiazepin-7-yl]-1,3,4-oxadiazol-2-yl]cyclobutanecarbonitrile] | 732 nM | 2520 nM | 101 % activation | 303 nM |
| CN1CCCC(F)(c2nnc(-c3ccc4c(c3)N(Cc3ccc(-c5ccc(C(F)(F)F)cn5)cc3)C(=O)[C@@H](N)CS4(=O)=O)o2)C1 (stereo partly drawn) [Example 51, (3R)-3-amino-7-[5-(3-fluoro-1-methyl-3-piperidyl)-1,3,4-oxadiazol-2-yl]-1,1-dioxo-5-[[4-[5-(trifluoromethyl)-2-pyridyl]phenyl]methyl]-2,3-dihydro-1λ^6,5-benzothiazepin-4-one] | 1800 nM | 6260 nM | 112 % activation | 882 nM |
| N[C@H]1CS(=O)(=O)c2cc(F)c(-c3nnc(N4CCC(F)(F)CC4)o3)cc2N(Cc2ccc(-c3noc(C(F)(F)F)n3)cc2)C1=O [Example 5, (3R)-3-amino-7-[5-(4,4-difluoro-1-piperidyl)-1,3,4-oxadiazol-2-yl]-8-fluoro-1,1-dioxo-5-[[4-[5-(trifluoromethyl)-1,2,4-oxadiazol-3-yl]phenyl]methyl]-2,3-dihydro-1λ^6,5-benzothiazepin-4-one] | 68 nM | 635 nM | 200 % activation | 120 nM |
| COc1ccc(-c2ccc(CN3C(=O)[C@@H](N)CS(=O)(=O)c4ccc(-c5nnc(C6(N)CCCCC6)o5)cc43)cc2)cc1 [Example 43, (3R)-3-amino-7-[5-(1-aminocyclohexyl)-1,3,4-oxadiazol-2-yl]-5-[[4-(4-methoxyphenyl)phenyl]methyl]-1,1-dioxo-2,3-dihydro-1λ^6,5-benzothiazepin-4-one] | 1090 nM | 17100 nM | 64 % activation | 284 nM |
| N[C@H]1CS(=O)(=O)c2cc(F)c(-c3noc(N4CCOC5(CC5)C4)n3)cc2N(Cc2ccc(-c3ccc(C(F)(F)F)cc3)nc2)C1=O [Example 11, (3R)-3-amino-8-fluoro-7-[5-(4-oxa-7-azaspiro[2.5]octan-7-yl)-1,2,4-oxadiazol-3-yl]-1,1-dioxo-5-[[6-[4-(trifluoromethyl)phenyl]-3-pyridyl]methyl]-2,3-dihydro-1λ^6,5-benzothiazepin-4-one] | 690 nM | > 6250 nM | 136 % activation | 1870 nM |
| CC(C)(C#N)c1nnc(-c2ccc3c(c2)N(Cc2ccc(-c4nc(C(F)(F)F)co4)cc2)C(=O)[C@@H](N)CS3(=O)=O)o1 [Example 123, 2-[5-[(3R)-3-amino-1,1,4-trioxo-5-[[4-[4-(trifluoromethyl)oxazol-2-yl]phenyl]methyl]-2,3-dihydro-1λ^6,5-benzothiazepin-7-yl]-1,3,4-oxadiazol-2-yl]-2-methyl-propanenitrile] | 893 nM | 1860 nM | 103 % activation | 860 nM |
| CC(C)(C)C(N)c1nnc(-c2ccc3c(c2)N(Cc2ccc(-c4noc(C(F)(F)F)n4)cc2)C(=O)[C@@H](N)CS3(=O)=O)o1 (stereo partly drawn) [Example 34, (3R)-3-amino-7-[5-(1-amino-2,2-dimethyl-propyl)-1,3,4-oxadiazol-2-yl]-1,1-dioxo-5-[[4-[5-(trifluoromethyl)-1,2,4-oxadiazol-3-yl]phenyl]methyl]-2,3-dihydro-1λ^6,5-benzothiazepin-4-one] | 1670 nM | 12200 nM | 67 % activation | 1180 nM |
| CC(C)(C#N)c1nnc(-c2cc3c(cc2F)S(=O)(=O)C[C@H](N)C(=O)N3Cc2ccc(-c3ccc(C(F)(F)F)cn3)cc2)o1 [Example 88, 2-[5-[(3R)-3-amino-8-fluoro-1,1,4-trioxo-5-[[4-[5-(trifluoromethyl)-2-pyridyl]phenyl]methyl]-2,3-dihydro-1λ^6,5-benzothiazepin-7-yl]-1,3,4-oxadiazol-2-yl]-2-methyl-propanenitrile] | 183 nM | 762 nM | 106 % activation | 45.1 nM |
| CC(C)(C#N)c1nnc(-c2ccc3c(c2)N(Cc2ccc(-c4cnc(C(F)(F)F)nc4)cc2)C(=O)[C@@H](N)CS3(=O)=O)o1 [Example 100] | 1460 nM | > 62500 nM | 96 % activation | 1900 nM |
| CC(C)(C#N)c1nnc(-c2ccc3c(c2)N(Cc2ccc(-c4ccnc(C(F)(F)F)c4)cc2)C(=O)[C@@H](N)CS3(=O)=O)o1 [Example 111, 2-[5-[(3R)-3-amino-1,1,4-trioxo-5-[[4-[2-(trifluoromethyl)-4-pyridyl]phenyl]methyl]-2,3-dihydro-1λ^6,5-benzothiazepin-7-yl]-1,3,4-oxadiazol-2-yl]-2-methyl-propanenitrile] | 1130 nM | > 62500 nM | 117 % activation | 926 nM |
